{"source": "patent US20160215306A1", "about": "(priority 2013, published 2016)", "key": {"[1]": {"experiment": "Pharmacokinetic profiling: plasma levels after single IV or oral administration", "assay_type": "in vivo, CD1 male mice"}, "[2]": {"settings": "in water; cited from earlier work"}, "[3]": {"experiment": "Solubility in water of purified compounds (H2O saturation, HPLC quantification)", "settings": "for solubility at 1 min: water, thermodynamic from solid"}, "[4]": {"experiment": "Separate experiment: plasma levels after single oral or IV administration, LC-MS", "settings": "for Plasma level of the administered compound after IV administration / Plasma level of the administered compound after oral administration: single dose 10 mL/kg, FIG. 21"}, "[5]": {"test_system": "recombinant β-glucosidase (GO16L, IFF)", "experiment": "Cleavage of glucose from resveratrol glucosides by recombinant β-glucosidase", "assay_type": "biochemical", "settings": "1 - β-glucosidase (IFF)"}, "[6]": {"test_system": "Depol™ cellulase (Biocatalysts)", "experiment": "Cleavage of glucose from resveratrol glucosides by Depol cellulase", "assay_type": "biochemical", "settings": "2 - Depol IFF (cellulase)"}, "Cellulase T. reesei": {"test_system": "Cellulase T. reesei", "assay_type": "biochemical"}, "Glusulase": {"test_system": "Glusulase", "experiment": "Cleavage of glucose from resveratrol glucosides by Glusulase", "assay_type": "biochemical", "settings": "4 - Glusulase"}, "Cellobiase from A. niger": {"test_system": "Cellobiase from A. niger", "assay_type": "biochemical"}, "[7]": {"test_system": "β-galactosidase from A. oryzae", "experiment": "Cleavage of glucose from resveratrol glucosides by β-galactosidase", "assay_type": "biochemical", "settings": "6 - β-galactosidase A. oryzae"}, "β-glucuronidase": {"test_system": "β-glucuronidase", "experiment": "Cleavage of glucose from resveratrol glucosides by β-glucuronidase", "assay_type": "biochemical", "settings": "7 - β-glucuronidase"}, "EXG1 [8]": {"target": "T1, EXG1 (Saccharomyces cerevisiae, UniProt P23776)", "T1 sequence (P23776 41-448)": "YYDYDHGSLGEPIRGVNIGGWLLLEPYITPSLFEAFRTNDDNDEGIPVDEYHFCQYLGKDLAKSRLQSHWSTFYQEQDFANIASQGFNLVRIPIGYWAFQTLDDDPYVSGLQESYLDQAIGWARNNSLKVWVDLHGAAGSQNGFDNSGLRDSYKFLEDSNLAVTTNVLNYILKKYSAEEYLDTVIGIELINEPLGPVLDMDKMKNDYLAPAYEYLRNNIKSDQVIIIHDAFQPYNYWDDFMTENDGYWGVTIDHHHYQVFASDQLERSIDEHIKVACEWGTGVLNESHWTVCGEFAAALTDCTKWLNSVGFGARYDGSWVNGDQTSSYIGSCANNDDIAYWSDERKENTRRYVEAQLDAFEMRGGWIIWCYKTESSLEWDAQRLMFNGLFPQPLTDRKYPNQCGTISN", "experiment": "Cleavage of glucose from resveratrol glucosides by broth enriched with EXG1", "assay_type": "biochemical, S. cerevisiae", "settings": "8 - EXG1 broth"}, "[9]": {"settings": "mouse, in vivo"}, "EXG1 [10]": {"target": "EXG1 (Saccharomyces cerevisiae, UniProt P23776)", "experiment": "Cleavage of piceid by S. cerevisiae cells with or without EXG1", "settings": "S. cerevisiae cells with functional EXG1, 125 mg/L piceid, overnight"}, "EXG1 [11]": {"test_system": "EXG1", "experiment": "Cleavage of piceid by S. cerevisiae cells with or without EXG1", "settings": "second S. cerevisiae strain (lacking EXG1), 125 mg/L piceid, overnight"}, "[12]": {"settings": "male, CD1, mouse, plasma, intravenous, 10 mg/kg"}}, "note": "Like-named read-outs stand apart in the source and are kept apart here."}
{"molecule": "Oc1ccc(C=Cc2cc(O)cc(O)c2)cc1", "note": "[Resveratrol, 3,5,4′-trihydroxy-stilbene]", "values": [{"measurement": "concentration at 0.25 h", "setting": "[1]; [12]", "value": 40, "unit": "ng/mL"}, {"measurement": "concentration at 0.5 h", "setting": "[1]; [12]", "value": 4, "unit": "ng/mL"}, {"measurement": "Solubility mg/L (Literatrure)", "setting": "[2]", "value": "15 to 30", "unit": "mg/L"}, {"measurement": "solubility at 1 min", "setting": "[3]", "value": "30 to 40", "unit": "µg/mL"}, {"measurement": "Plasma level of the administered compound after IV administration", "setting": "[4]", "value": "an increase in resveratrol plasma levels appeared 4 h post-administration"}, {"measurement": "Plasma level of the administered compound after oral administration", "setting": "[4]", "value": "cleared quickly"}]}
{"molecule": "cis/trans-resveratrol-3,5-di-O-β-glucoside [3,5-resveratrol diglucoside]", "values": [{"measurement": "% cleavage in conditions tested", "setting": "[5]", "value": "✓ (✓ = >95%)"}, {"measurement": "% cleavage in conditions tested", "setting": "[6]", "value": "✓ (✓ = >95%)"}, {"measurement": "% cleavage in conditions tested", "setting": "Cellulase T. reesei", "value": "✓ (key: ✓ = >95%; ♦ = 50-95%; • = 5-49%; X = 0%)"}, {"measurement": "% cleavage in conditions tested", "setting": "Glusulase", "value": "✓ (✓ = >95%)"}, {"measurement": "% cleavage in conditions tested", "setting": "Cellobiase from A. niger", "value": "✓ (key: ✓ = >95%; ♦ = 50-95%; • = 5-49%; X = 0%)"}, {"measurement": "% cleavage in conditions tested", "setting": "[7]", "value": "✓ (✓ = >95%)"}, {"measurement": "% cleavage in conditions tested", "setting": "β-glucuronidase", "value": "✓ (✓ = >95%)"}, {"measurement": "% cleavage in conditions tested", "setting": "EXG1 [8]", "value": "• (• = 5-49%)"}, {"measurement": "Time of highest plasma level of administered compound, IV", "setting": "[9]; iv", "value": 1, "unit": "h"}, {"measurement": "Time within which plasma level declined, IV", "setting": "[9]; iv", "value": "≤ 4", "unit": "h"}, {"measurement": "Plasma level of the administered compound after oral administration", "setting": "[9]; po", "value": "high levels"}, {"measurement": "Time within which plasma level declined, oral", "setting": "[9]; po", "value": "≤ 3", "unit": "h"}]}
{"molecule": "OC[C@H]1O[C@@H](Oc2ccc(/C=C/c3cc(O)cc(O[C@@H]4O[C@H](CO)[C@@H](O)[C@H](O)[C@H]4O)c3)cc2)[C@H](O)[C@@H](O)[C@@H]1O", "note": "(relative stereo) [3,4′-resveratrol diglucoside, trans-resveratrol-3,4′-di-O-β-glucoside]", "values": [{"measurement": "% cleavage in conditions tested", "setting": "[5]", "value": "✓ (✓ = >95%)"}, {"measurement": "% cleavage in conditions tested", "setting": "[6]", "value": "✓ (✓ = >95%)"}, {"measurement": "% cleavage in conditions tested", "setting": "Cellulase T. reesei", "value": "✓ (key: ✓ = >95%; ♦ = 50-95%; • = 5-49%; X = 0%)"}, {"measurement": "% cleavage in conditions tested", "setting": "Glusulase", "value": "✓ (✓ = >95%)"}, {"measurement": "% cleavage in conditions tested", "setting": "Cellobiase from A. niger", "value": "✓ (key: ✓ = >95%; ♦ = 50-95%; • = 5-49%; X = 0%)"}, {"measurement": "% cleavage in conditions tested", "setting": "[7]", "value": "✓ (✓ = >95%)"}, {"measurement": "% cleavage in conditions tested", "setting": "β-glucuronidase", "value": "✓ (✓ = >95%)"}, {"measurement": "% cleavage in conditions tested", "setting": "EXG1 [8]", "value": "♦ (♦ = 50-95%)"}, {"measurement": "Plasma level relative to 3,5-resveratrol diglucoside, oral", "setting": "[9]; po", "value": "approximately 3 fold"}, {"measurement": "Time within which compound was cleared from plasma, oral", "setting": "[9]; po", "value": "≤ 1", "unit": "h"}]}
{"molecule": "OC[C@H]1O[C@@H](Oc2ccc(/C=C/c3cc(O)cc(O)c3)cc2)[C@H](O)[C@@H](O)[C@@H]1O", "note": "(relative stereo) [Resveratroloside, trans-resveratrol-4′-O-β-glucoside]", "values": [{"measurement": "% cleavage in conditions tested", "setting": "[5]", "value": "✓ (✓ = >95%)"}, {"measurement": "% cleavage in conditions tested", "setting": "[6]", "value": "✓ (✓ = >95%)"}, {"measurement": "% cleavage in conditions tested", "setting": "Glusulase", "value": "✓ (✓ = >95%)"}, {"measurement": "% cleavage in conditions tested", "setting": "[7]", "value": "✓ (✓ = >95%)"}, {"measurement": "% cleavage in conditions tested", "setting": "β-glucuronidase", "value": "✓ (✓ = >95%)"}, {"measurement": "% cleavage in conditions tested", "setting": "EXG1 [8]", "value": "• (• = 5-49%)"}, {"measurement": "Solubility mg/L (in house)", "setting": "[3]; in nanopure H2O, HPLC", "value": "1,300 mg/L"}, {"measurement": "Plasma level of the administered compound after IV administration", "setting": "[4]", "value": "low"}, {"measurement": "Plasma levels of resveratrol after administration of the glucoside", "setting": "[4]; oral and IV administration", "value": "a sharp increase in resveratrol"}, {"measurement": "Plasma level of the administered compound after oral administration", "setting": "[4]", "value": "low"}]}
{"molecule": "OC[C@H]1O[C@@H](Oc2cc(O)cc(C=Cc3ccc(O)cc3)c2)[C@H](O)[C@@H](O)[C@@H]1O", "note": "[Piceid, resveratrol 3-O-β-D-glucopyranoside]", "values": [{"measurement": "Detection of administered compound in plasma after IV administration", "setting": "[1]; 10 mg/kg IV", "value": "detectable"}, {"measurement": "Detection of administered compound in plasma after oral administration", "setting": "[1]; 10 mg/kg PO", "value": "detectable"}, {"measurement": "Systemic conversion to trans-resveratrol", "setting": "[1]; after IV and oral administration", "value": "converted to trans-resveratrol systemically"}, {"measurement": "concentration at 0.25 h", "setting": "[1]; male, CD1, mouse, plasma, piceid 10 mg/kg IV, 0.25 h, read-out: Piceid (Detection of piceid) in plasma, IV", "value": 2830, "unit": "ng/mL"}, {"measurement": "concentration at 0.5 h", "setting": "[1]; male, CD1, mouse, plasma, piceid 10 mg/kg IV, 0.5 h, read-out: Piceid (Detection of piceid) in plasma, IV", "value": 320, "unit": "ng/mL"}, {"measurement": "concentration at 1 h", "setting": "[1]; male, CD1, mouse, plasma, piceid 10 mg/kg IV, read-out: Piceid (Detection of piceid) in plasma, IV", "value": 50, "unit": "ng/mL"}, {"measurement": "concentration at 0.5 h", "setting": "[1]; male, CD1, mouse, plasma, piceid 10 mg/kg PO, 0.5 h, read-out: Piceid (Detection of piceid) in plasma, PO", "value": 5, "unit": "ng/mL"}, {"measurement": "concentration at 1 h", "setting": "[1]; male, CD1, mouse, plasma, piceid 10 mg/kg PO, read-out: Piceid (Detection of piceid) in plasma, PO", "value": 8, "unit": "ng/mL"}, {"measurement": "concentration at 2 h", "setting": "[1]; male, CD1, mouse, plasma, piceid 10 mg/kg PO, 2 h, read-out: Piceid (Detection of piceid) in plasma, PO", "value": 4, "unit": "ng/mL"}, {"measurement": "% cleavage in conditions tested", "setting": "[5]", "value": "✓ (✓ = >95%)"}, {"measurement": "% cleavage in conditions tested", "setting": "[6]", "value": "✓ (✓ = >95%)"}, {"measurement": "% cleavage in conditions tested", "setting": "Cellulase T. reesei", "value": "✓ (key: ✓ = >95%; ♦ = 50-95%; • = 5-49%; X = 0%)"}, {"measurement": "% cleavage in conditions tested", "setting": "Glusulase", "value": "✓ (✓ = >95%)"}, {"measurement": "% cleavage in conditions tested", "setting": "Cellobiase from A. niger", "value": "✓ (key: ✓ = >95%; ♦ = 50-95%; • = 5-49%; X = 0%)"}, {"measurement": "% cleavage in conditions tested", "setting": "[7]", "value": "✓ (✓ = >95%)"}, {"measurement": "% cleavage in conditions tested", "setting": "β-glucuronidase", "value": "✓ (✓ = >95%)"}, {"measurement": "% cleavage in conditions tested", "setting": "EXG1 [8]", "value": "♦ (♦ = 50-95%)"}, {"measurement": "Solubility mg/L (Literatrure)", "setting": "[2]", "value": 69, "unit": "mg/L"}, {"measurement": "Piceid cleaved, yielding resveratrol", "setting": "EXG1 [10]", "value": "approximately 25%"}, {"measurement": "Piceid cleaved", "setting": "EXG1 [11]", "value": "less than 0.5%"}, {"measurement": "solubility at 1 min", "setting": "[3]", "value": "200 to 300", "unit": "µg/mL"}, {"measurement": "Plasma level of the administered compound after oral administration", "setting": "[4]", "value": "detected at a low level"}, {"measurement": "Piceid detected in plasma after IV administration", "setting": "[4]; piceid 17.1 mg/kg IV", "value": "approximately 900 ng/mL"}]}
